# Reference: US11179390B2, “Subcutaneous administration of a P2Y12 receptor antagonist” (Idorsia Pharmaceuticals Ltd, priority 2017, dated 2021)
# Where “and” joins values, the source holds several entries; their conditions need not be identical. Equal entries are not always repeated. Structures can show the parent of a compound that is named as a salt.
# Experiments:
# [1] = tested on: ADP-induced AF488-Fibrinogen binding on mouse platelets; test: AF488-Fibrinogen binding assay on whole blood after subcutaneous administration of P2Y12 receptor antagonists; assay type: in vivo, mouse (male Balb/c)
# Source text: In-Vivo Measurements of Time Dependent Platelet Inhibition after Subcutaneous Administration of P2Y12 Receptor Antagonists:
# Male Balb/c mice were purchased from Charles River laboratories (Sulzfeld, Germany). All animals were maintained under identical conditions in accordance with the guidelines of the Basel-Landschaft cantonal veterinary office. Husbandry was accomplished in professional animal housing facilities, which provided group-cages, standard diet/water ad libitum, and standard illumination and climate conditions. The technical assistants performed at least one inspection per day. Sufficient time was provided for the animals to be accustomed to the experimental environment. Stress reduction was provided also by enrichment of cages, and providing the possibility to retire to dark housings (taking advantage of the color blindness of albino mice in the red range of the light spectrum). Inside the red housing the animals have the impression of being in the dark, while this housing remains visible to normal human vision.
# Compound 1 hydrochloride, 0.2 mg/kg (respectively 5 mL/kg)
# Elinogrel, 30 mg/kg (respectively 5 mL/kg)
# Cangrelor, 0.2 mg/kg (respectively 5 mL/kg)
# After an acclimatization period of at least 7 days, mice were anesthetized with Isoflurane (2-5%). The animals were then placed on a thermostatically-controlled heating table to maintain body temperature at 36-38° C. A polyurethane catheter (BTPU-027) was inserted into the right jugular vein and advanced into the vena cava for infusion of Heparin and to collect blood. […] Therefore Heparin (4000 U/kg/2.5 mL) was intravenously injected to prevent blood from coagulation.
# Two minutes after the injection of Heparin, 60 μL of whole blood was collected via the vena cava catheter (baseline). […] 10, 20, 30, 40 and 60 minutes after the subcutaneous injection of the test compounds, 60 μL of whole blood were collected via the vena cava catheter for the fibrinogen binding assay.
# (§1) This assay is particularly well adapted for reliable studies of the effect of P2Y12 antagonists on mouse platelets under in vitro and in vivo conditions. The assay allows to measure ADP-induced AF488-Fibrinogen binding on mouse platelets in only 6 μL whole blood and without washing steps.
# (§2) Next, 10 μL of AF488-Fibrinogen (to give 0.5 mg/mL final concentration) were added followed by incubation of 5 minutes. To induce AF488-Fibrinogen binding, the platelets were then incubated with 10 μL ADP (to give 20 μM final concentration) for 5 minutes. In addition, an incubation with a platelet specific Allophycocyanin (APC) anti-Mouse CD61 (integrin beta 3) antibody (clone 2C9.G2) was performed for 10 minutes. The platelets were then fixed by addition of 34 μL cold paraformaldehyde solution (to give 0.1% final concentration) and stored at 4° C. for about 20 minutes. The samples were finally diluted with 1.8 mL cold PBS and put on hold at 4° C. for at least 2 hours, time necessary for gently red blood cell lysis, before measuring by flow cytometry.
# Flow cytometry was performed using a FACSCanto II instrument (BD Bioscience). The setting of fluorescence compensation was not required due to the use of two different lasers.
# Platelets were first detected using the platelet specific fluorescence signal of APC-CD61 (APC-settings for fluorescence emission peak at 660 nm). The platelet population was then gated using forward-scatter (FSC) and side-scatter (SSC) and their FITC-labeled Fibrinogen signal (FITC-settings for fluorescence emission peak at 525 nm) was quantitated as Mean Fluorescence Intensity (MFI) of 5000 platelets. For each sample, the MFI from corresponding nonspecific sample was subtracted.
# [2] = tested on: ADP-induced AF488-Fibrinogen binding on platelets; test: In vitro inhibition of ADP-induced AF488-Fibrinogen binding (nonspecific signal control); assay type: cell-based; settings: Mus musculus, Platelet, 0.25 h; 2 μM final concentration in diluted blood, 15 minutes at RT, 20 μM ADP; prior experiments
# Method: as §1
# as §2, with “The blood was first incubated with 4 μL vehicle or 4 μL Compound 1 hydrochloride (to give 2 μM final concentration in diluted blood) for 15 minutes at RT. This concentration of Compound 1 hydrochloride was determined in prior experiments to inhibit 100% of ADP-induced AF488-Fibrinogen binding on platelets and represents the nonspecific signal. Next,” for “Next,”
compound,measurement,setting,value
CSCCNc1nc(SCCC(F)(F)F)nc2c1ncn2[C@@H]1O[C@H](COP(=O)(O)OP(=O)(O)C(Cl)(Cl)P(=O)(O)O)[C@@H](O)[C@H]1O [Cangrelor],Mean Fluorescence Intensities of AF488-Fibrinogen binding to platelets,"[1]; 0.2 mg/kg s.c., 10 min after injection",1596 MFI and 1628 MFI and 2550 MFI
same,Mean Fluorescence Intensities of AF488-Fibrinogen binding to platelets,"[1]; 0.2 mg/kg s.c., 20 min after injection",713 MFI and 1364 MFI and 1012 MFI
same,Mean Fluorescence Intensities of AF488-Fibrinogen binding to platelets,"[1]; 0.2 mg/kg s.c., 40 min after injection",765 MFI and 732 MFI and 921 MFI
same,Mean Fluorescence Intensities of AF488-Fibrinogen binding to platelets,"[1]; 0.2 mg/kg s.c., 60 min after injection",1048 MFI and 682 MFI and 961 MFI
same,Mean Fluorescence Intensities of AF488-Fibrinogen binding to platelets,"[1]; 0.2 mg/kg s.c., time 0 min (baseline, before injection)",6200 MFI and 7453 MFI and 5476 MFI
"CCCCOC(=O)N1CCN(C(=O)[C@H](CP(=O)(O)O)NC(=O)c2cc(N3CC[C@H](OC)C3)nc(-c3ccccc3)n2)CC1 [Compound 1 hydrochloride, ((R)-3-(4-(butoxycarbonyl)piperazin-1-yl)-2-(6-((S)-3-methoxypyrrolidin-1-yl)-2-phenylpyrimidine-4-carboxamido)-3-oxopropyl)phosphonic acid hydrochloride]",inhibition at 2 µM,[2],100%
CNc1cc2[nH]c(=O)n(-c3ccc(NC(=O)NS(=O)(=O)c4ccc(Cl)s4)cc3)c(=O)c2cc1F [Elinogrel],Mean Fluorescence Intensities of AF488-Fibrinogen binding to platelets,"[1]; 30 mg/kg s.c., 10 min after injection",4403 MFI and 4712 MFI and 3842 MFI and 3840 MFI
same,Mean Fluorescence Intensities of AF488-Fibrinogen binding to platelets,"[1]; 30 mg/kg s.c., 20 min after injection",2374 MFI and 3847 MFI and 2177 MFI and 4078 MFI
same,Mean Fluorescence Intensities of AF488-Fibrinogen binding to platelets,"[1]; 30 mg/kg s.c., 40 min after injection",1644 MFI and 1768 MFI and 1652 MFI and 2619 MFI
same,Mean Fluorescence Intensities of AF488-Fibrinogen binding to platelets,"[1]; 30 mg/kg s.c., 60 min after injection",2034 MFI and 1503 MFI and 1515 MFI and 2191 MFI
same,Mean Fluorescence Intensities of AF488-Fibrinogen binding to platelets,"[1]; 30 mg/kg s.c., time 0 min (baseline, before injection)",8124 MFI and 5370 MFI and 7045 MFI and 7097 MFI
